Reference: US20110118118A1, “HERBICIDALLY ACTIVE PHENYL-SUBSTITUTED PYRIDAZINONES” (BAYER CROPSCIENCE AG, priority 2009, published 2011)

Experiments:
Test in all cases: Post-emergence herbicidal action against harmful plants
Format in all cases: in vivo
Conditions in all cases: application rate 320 g/ha, rated visually after about 3 weeks vs untreated controls
Abutilon theophrasti = test system: Abutilon theophrasti
Method: (§1) 2. Post-Emergence Herbicidal Action Against Harmful Plants Seeds of monocotyledonous and dicotyledonous weed and crop plants are placed in sandy loam in wood-fiber pots, covered with soil and cultivated in a greenhouse under good growth conditions. 2 to 3 weeks after sowing, the test plants are treated at the one-leaf stage. The compounds according to the invention, formulated in the form of wettable powders (WP) or as emulsion concentrates (EC), are then sprayed as aqueous suspension or emulsion at a water application rate of 600 to 800 l/ha (converted) with the addition of 0.2% of wetting agent onto the green parts of the plants. After the test plants have been kept in the greenhouse under optimum growth conditions for about 3 weeks, the activity of the preparations is rated visually in comparison to untreated controls (herbicidal activity in percent (%): 100% activity=the plants have died, 0% activity=like control plants). Here, for example, the compounds Nos. I-1-c-2 and I-1-c-3 (Table 33 in each case) each show, at an application rate of 320 g/ha, an activity of at least 90% against Alopecurus myosuroides, Amaranthus retroflexus, Matricaria inodora, Pharbitis purpureum and Viola tricolor.

Veronica persica = test system: Veronica persica
Method: as §1

Lolium multiflorum = test system: Lolium multiflorum
Method: as §1

Fallopia convolvulus = test system: Fallopia convolvulus
Method: as §1

CCc1cc(Cl)cc(Br)c1-c1c(OC(=O)C(C)C)c(C)nn(C)c1=O [I-1-b-2]
100%: herbicidal activity in percent against Abutilon theophrasti (Abutilon theophrasti) | herbicidal activity in percent against Veronica persica (Veronica persica) | herbicidal activity in percent against Lolium multiflorum (Lolium multiflorum) | herbicidal activity in percent against Fallopia convolvulus (Fallopia convolvulus)

CCc1cc(Cl)cc(Br)c1-c1c(O)c(C)nn(C)c1=O [I-1-a-3]
100%: herbicidal activity in percent against Abutilon theophrasti (Abutilon theophrasti) | herbicidal activity in percent against Veronica persica (Veronica persica) | herbicidal activity in percent against Lolium multiflorum (Lolium multiflorum) | herbicidal activity in percent against Fallopia convolvulus (Fallopia convolvulus)
